Data as given in patent US8168651B2, “Protein kinase modulators” (Cylene Pharmaceuticals, Inc., priority 2008, dated 2012).

What was measured:
Assay in all cases: Standardized radiometric kinase assays, percentage of activity at 0.5 μM;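 note: Read-out is ³³P-labelled substrate protein phosphorylated by each kinase, captured on filters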
[1] = molecular target: each individual kinase of the panel (Homo sapiens, UniProt O15146)
[2] = molecular target: each individual kinase of the panel (Homo sapiens, UniProt O94806)
[3] = molecular target: each individual kinase of the panel (Homo sapiens, UniProt O96017, I157T)
[4] = molecular target: each individual kinase of the panel (Homo sapiens, UniProt O96017, R145W)
[5] = molecular target: each individual kinase of the panel (Homo sapiens, UniProt P09769)
Sequence of each individual kinase of the panel (Homo sapiens, UniProt P09769) (P09769 2-529 limits assumed): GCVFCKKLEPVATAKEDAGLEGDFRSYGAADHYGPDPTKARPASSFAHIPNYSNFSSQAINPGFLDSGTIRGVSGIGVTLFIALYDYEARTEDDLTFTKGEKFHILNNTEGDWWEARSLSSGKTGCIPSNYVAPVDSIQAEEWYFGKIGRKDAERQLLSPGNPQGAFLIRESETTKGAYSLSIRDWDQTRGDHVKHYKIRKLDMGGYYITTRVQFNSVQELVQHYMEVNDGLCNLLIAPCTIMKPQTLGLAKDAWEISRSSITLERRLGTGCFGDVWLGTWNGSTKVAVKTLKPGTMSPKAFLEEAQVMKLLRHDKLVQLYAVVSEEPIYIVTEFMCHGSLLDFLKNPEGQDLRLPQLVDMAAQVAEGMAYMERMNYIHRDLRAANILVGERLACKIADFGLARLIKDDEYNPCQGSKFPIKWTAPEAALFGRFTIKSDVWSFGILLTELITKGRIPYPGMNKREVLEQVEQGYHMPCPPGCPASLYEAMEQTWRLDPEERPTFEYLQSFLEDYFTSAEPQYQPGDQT

[6] = molecular target: each individual kinase of the panel (Homo sapiens, UniProt P10721, V654A)
Sequence of each individual kinase of the panel (Homo sapiens, UniProt P10721, V654A) (P10721 26-976 V654A limits assumed): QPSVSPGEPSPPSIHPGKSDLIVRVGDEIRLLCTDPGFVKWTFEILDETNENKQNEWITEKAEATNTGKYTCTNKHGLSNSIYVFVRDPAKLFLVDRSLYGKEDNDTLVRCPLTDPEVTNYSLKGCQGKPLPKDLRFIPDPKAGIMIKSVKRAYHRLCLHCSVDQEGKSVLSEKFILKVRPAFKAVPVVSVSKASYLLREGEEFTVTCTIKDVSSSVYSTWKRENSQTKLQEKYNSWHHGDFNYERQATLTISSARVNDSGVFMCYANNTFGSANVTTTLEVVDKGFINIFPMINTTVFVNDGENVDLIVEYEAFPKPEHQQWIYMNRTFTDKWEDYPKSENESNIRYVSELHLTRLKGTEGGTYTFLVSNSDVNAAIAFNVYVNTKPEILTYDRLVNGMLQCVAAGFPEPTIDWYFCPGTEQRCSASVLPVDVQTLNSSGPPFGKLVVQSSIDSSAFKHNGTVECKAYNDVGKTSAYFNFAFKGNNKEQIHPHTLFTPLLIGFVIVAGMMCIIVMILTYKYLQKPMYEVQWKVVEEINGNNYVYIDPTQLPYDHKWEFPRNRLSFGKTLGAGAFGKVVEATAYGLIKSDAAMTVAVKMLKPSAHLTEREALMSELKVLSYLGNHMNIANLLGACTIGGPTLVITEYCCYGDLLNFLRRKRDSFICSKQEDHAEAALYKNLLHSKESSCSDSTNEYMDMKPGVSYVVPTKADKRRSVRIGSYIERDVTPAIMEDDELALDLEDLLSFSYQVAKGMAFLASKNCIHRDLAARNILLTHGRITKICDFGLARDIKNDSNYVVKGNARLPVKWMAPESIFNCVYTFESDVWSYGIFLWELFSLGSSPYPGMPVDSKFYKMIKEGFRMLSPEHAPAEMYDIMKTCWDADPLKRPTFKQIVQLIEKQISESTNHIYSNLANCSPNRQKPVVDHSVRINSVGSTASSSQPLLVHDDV

[7] = molecular target: each individual kinase of the panel (Homo sapiens, UniProt P21709)
Sequence of each individual kinase of the panel (Homo sapiens, UniProt P21709) (P21709 26-976 limits assumed): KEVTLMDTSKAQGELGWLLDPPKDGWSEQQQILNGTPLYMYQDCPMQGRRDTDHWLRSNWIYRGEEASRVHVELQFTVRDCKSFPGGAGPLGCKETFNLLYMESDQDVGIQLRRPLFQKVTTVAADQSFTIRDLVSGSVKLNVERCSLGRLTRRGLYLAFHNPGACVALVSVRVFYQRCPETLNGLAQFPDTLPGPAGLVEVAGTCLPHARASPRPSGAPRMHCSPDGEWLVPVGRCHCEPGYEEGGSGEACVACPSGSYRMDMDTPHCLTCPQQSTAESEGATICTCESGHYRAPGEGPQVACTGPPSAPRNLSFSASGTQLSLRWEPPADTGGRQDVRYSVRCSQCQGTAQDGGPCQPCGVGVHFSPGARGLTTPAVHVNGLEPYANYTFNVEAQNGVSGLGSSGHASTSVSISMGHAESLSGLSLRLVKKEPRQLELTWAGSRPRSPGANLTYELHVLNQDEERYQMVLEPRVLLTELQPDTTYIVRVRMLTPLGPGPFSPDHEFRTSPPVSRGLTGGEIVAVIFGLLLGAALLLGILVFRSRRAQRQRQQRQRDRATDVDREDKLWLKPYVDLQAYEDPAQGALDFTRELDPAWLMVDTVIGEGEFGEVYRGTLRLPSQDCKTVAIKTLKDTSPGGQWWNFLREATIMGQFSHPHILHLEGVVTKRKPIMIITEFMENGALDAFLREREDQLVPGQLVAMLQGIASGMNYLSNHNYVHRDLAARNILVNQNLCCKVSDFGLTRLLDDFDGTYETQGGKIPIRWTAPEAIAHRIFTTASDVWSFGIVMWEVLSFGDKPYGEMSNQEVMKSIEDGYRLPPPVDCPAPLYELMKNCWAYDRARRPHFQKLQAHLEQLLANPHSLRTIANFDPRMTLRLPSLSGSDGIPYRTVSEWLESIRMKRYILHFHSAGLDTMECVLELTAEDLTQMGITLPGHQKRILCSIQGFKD

[8] = molecular target: each individual kinase of the panel (Homo sapiens, UniProt P21802, N549H)
[9] = molecular target: each individual kinase of the panel (Homo sapiens, UniProt P31751)
[10] = molecular target: each individual kinase of the panel (Homo sapiens, UniProt P36896)
Sequence of each individual kinase of the panel (Homo sapiens, UniProt P36896) (P36896 24-505 limits assumed): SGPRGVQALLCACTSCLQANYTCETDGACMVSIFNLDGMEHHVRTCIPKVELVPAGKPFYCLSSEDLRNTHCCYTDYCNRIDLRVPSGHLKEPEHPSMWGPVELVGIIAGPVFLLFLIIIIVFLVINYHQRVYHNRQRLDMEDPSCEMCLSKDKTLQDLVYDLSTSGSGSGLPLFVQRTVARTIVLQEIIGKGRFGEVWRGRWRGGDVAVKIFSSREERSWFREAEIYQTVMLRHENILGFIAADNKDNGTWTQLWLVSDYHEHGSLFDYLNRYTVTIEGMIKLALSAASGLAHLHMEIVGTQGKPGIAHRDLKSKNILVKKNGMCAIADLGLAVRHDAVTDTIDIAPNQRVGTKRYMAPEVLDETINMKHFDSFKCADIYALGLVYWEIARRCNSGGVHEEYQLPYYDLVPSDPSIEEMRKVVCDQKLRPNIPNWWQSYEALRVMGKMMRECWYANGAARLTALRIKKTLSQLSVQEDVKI

[11] = molecular target: each individual kinase of the panel (Homo sapiens, UniProt P42684)
Sequence of each individual kinase of the panel (Homo sapiens, UniProt P42684) (P42684 2-1182 limits assumed): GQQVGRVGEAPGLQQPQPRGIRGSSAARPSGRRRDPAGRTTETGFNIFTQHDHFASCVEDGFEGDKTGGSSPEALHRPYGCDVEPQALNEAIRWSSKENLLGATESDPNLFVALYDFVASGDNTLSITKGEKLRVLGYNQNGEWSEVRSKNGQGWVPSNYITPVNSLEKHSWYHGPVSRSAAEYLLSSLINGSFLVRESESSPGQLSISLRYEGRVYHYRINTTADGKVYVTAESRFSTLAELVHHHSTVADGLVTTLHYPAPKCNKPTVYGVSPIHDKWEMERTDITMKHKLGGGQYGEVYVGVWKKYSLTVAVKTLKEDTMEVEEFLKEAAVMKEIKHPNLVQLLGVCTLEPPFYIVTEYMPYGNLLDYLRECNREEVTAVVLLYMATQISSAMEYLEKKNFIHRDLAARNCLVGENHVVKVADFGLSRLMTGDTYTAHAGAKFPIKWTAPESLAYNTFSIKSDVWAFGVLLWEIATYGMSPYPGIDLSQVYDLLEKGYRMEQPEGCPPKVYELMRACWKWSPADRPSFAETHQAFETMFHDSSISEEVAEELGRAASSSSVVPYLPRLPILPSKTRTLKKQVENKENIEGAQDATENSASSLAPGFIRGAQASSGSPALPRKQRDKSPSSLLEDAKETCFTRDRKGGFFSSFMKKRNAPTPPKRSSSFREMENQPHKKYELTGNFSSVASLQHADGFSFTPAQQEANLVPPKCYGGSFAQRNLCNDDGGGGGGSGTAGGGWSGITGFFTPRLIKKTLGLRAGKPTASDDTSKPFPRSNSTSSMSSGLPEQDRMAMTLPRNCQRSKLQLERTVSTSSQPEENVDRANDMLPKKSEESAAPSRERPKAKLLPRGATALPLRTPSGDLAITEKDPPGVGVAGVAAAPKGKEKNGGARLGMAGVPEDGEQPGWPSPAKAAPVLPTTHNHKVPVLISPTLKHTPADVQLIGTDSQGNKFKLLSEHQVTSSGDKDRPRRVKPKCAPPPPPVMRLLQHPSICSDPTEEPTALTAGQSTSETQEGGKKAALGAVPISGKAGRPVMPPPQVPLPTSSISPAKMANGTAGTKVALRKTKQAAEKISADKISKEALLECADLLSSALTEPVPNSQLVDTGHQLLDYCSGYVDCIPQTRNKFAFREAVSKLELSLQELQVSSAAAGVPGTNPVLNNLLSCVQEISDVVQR

[12] = molecular target: each individual kinase of the panel (Homo sapiens, UniProt P42685)
[13] = molecular target: each individual kinase of the panel (Homo sapiens, UniProt P49761)
[14] = molecular target: each individual kinase of the panel (Homo sapiens, UniProt P51817)
[15] = molecular target: each individual kinase of the panel (Homo sapiens, UniProt P54762)
[16] = molecular target: each individual kinase of the panel (Homo sapiens, UniProt Q00526)
[17] = molecular target: each individual kinase of the panel (Homo sapiens, UniProt Q00535)
[18] = molecular target: each individual kinase of the panel (Homo sapiens, UniProt Q13188)
[19] = molecular target: each individual kinase of the panel (Homo sapiens, UniProt Q15139)
[20] = molecular target: each individual kinase of the panel (Homo sapiens, UniProt Q15831)
[21] = molecular target: each individual kinase of the panel (Homo sapiens, UniProt Q16539, T106M)
Sequence of each individual kinase of the panel (Homo sapiens, UniProt Q16539, T106M) (Q16539 2-360 T106M limits assumed): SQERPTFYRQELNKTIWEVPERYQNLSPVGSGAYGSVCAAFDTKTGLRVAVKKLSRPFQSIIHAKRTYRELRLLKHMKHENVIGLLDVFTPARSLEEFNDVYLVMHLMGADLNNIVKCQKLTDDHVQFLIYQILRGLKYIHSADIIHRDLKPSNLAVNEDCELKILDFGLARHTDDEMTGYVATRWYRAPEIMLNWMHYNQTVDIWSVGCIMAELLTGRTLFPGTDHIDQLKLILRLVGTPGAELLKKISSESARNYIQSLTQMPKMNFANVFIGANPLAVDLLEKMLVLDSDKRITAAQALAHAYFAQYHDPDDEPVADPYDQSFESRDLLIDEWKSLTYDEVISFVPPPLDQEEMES

[22] = molecular target: each individual kinase of the panel (Homo sapiens, UniProt Q5VT25)
[23] = molecular target: each individual kinase of the panel (Homo sapiens, UniProt Q8NG66)
[24] = molecular target: each individual kinase of the panel (Homo sapiens, UniProt Q8TDC3)
[25] = molecular target: each individual kinase of the panel (Homo sapiens, UniProt Q8TDX7)
[26] = molecular target: each individual kinase of the panel (Homo sapiens, UniProt Q9BXA7)
[27] = molecular target: each individual kinase of the panel (Homo sapiens, UniProt Q9BYT3)
[28] = molecular target: each individual kinase of the panel (Homo sapiens, UniProt Q9H2G2)
[29] = molecular target: each individual kinase of the panel (Homo sapiens, UniProt Q9UL54)
[30] = molecular target: each individual kinase of the panel (Homo sapiens, UniProt Q9UPE1)
[31] = molecular target: each individual kinase of the panel (Homo sapiens, UniProt Q9Y243)
Sequence of each individual kinase of the panel (Homo sapiens, UniProt Q9Y243) (Q9Y243 2-479 limits assumed): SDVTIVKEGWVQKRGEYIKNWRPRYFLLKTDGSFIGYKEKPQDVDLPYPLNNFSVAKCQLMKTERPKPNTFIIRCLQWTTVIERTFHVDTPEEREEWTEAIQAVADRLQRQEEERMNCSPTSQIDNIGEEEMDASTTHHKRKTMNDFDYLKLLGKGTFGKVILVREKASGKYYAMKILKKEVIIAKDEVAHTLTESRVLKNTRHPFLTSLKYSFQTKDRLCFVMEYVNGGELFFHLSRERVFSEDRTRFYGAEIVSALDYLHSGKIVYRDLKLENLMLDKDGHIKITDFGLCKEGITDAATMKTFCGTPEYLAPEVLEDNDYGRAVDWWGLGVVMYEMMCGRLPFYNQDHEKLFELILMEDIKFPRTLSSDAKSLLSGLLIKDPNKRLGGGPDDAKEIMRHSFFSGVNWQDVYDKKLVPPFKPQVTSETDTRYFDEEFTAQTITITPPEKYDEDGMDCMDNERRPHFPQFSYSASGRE

MUSK percentage of activity [1]: −6%
PRKCN percentage of activity [2]: 2%
CHK2(1157T) (h) percentage of activity [3]: 3%
CHK2(R145W) (h) percentage of activity [4]: 0%
FGR percentage of activity [5]: 39%
cKit(V654A) percentage of activity [6]: 8%
EPHA1 percentage of activity [7]: −6%
FGFR2 (N549H) percentage of activity [8]: 4%
AKT2 percentage of activity [9]: −10%
ALK4 percentage of activity [10]: −15%
ABL2 percentage of activity [11]: 2%
FRK percentage of activity [12]: 3%
CLK3 percentage of activity [13]: 83%
PRKX percentage of activity [14]: 3%
EPHB1 percentage of activity [15]: 1%
CDK3/cyclinE percentage of activity [16]: −19%
CDK5/p25 percentage of activity [17]: 4%
CDK5/p35 percentage of activity [17]: −7%
MST2 percentage of activity [18]: −6%
PRKCM percentage of activity [19]: −4%
LKB1 percentage of activity [20]: −2%
p38-alpha (T106M) percentage of activity [21]: −8%
MRCKA percentage of activity [22]: −10%
NEK11 percentage of activity [23]: −2%
BRSK1 percentage of activity [24]: −1%
NEK7 percentage of activity [25]: −14%
TSSK1 percentage of activity [26]: −18%
STK33 percentage of activity [27]: 0%
SLK percentage of activity [28]: −15%
TAO2 percentage of activity [29]: 3%
MSSK1 percentage of activity [30]: −3%
AKT3 percentage of activity [31]: 0%
Structure (SMILES): C#Cc1cccc(Nc2nc3cc(C(=O)O)ccc3c3cncnc23)c1 [drawing 1135]
